From ChEMBL document CHEMBL1141602, “Chemical library and structure-activity relationships of 11-demethyl-12-oxo calanolide A analogues as anti-HIV-1 agents” (J Med Chem, 2008)
Values after ≈ are worked out from the molar mass of the structure shown.

Assays:
[1] = test system: Human immunodeficiency virus 1; experiment: Antiviral activity against HIV1 at 1.0 uM; format: functional
HOS = experiment: Toxicity in CD4 expressing HOS cells at 10 uM; format: cell-based; conditions: human
[2] = test system: Human immunodeficiency virus 1; experiment: Antiviral activity against HIV1; format: functional, organism-based
[3] = Therapeutic index, ratio of IC50 for HOS cells to EC50 for human HIV1; format: cell-based; conditions: read-out: Ratio IC50/EC50
[4] = test system: Mycobacterium tuberculosis; experiment: Antimicrobial activity against Mycobacterium tuberculosis; format: functional

CC1CC(=O)c2c(c3c(c4c(-c5ccc([N+](=O)[O-])cc5)cc(=O)oc24)OC(C)(C)C=C3)O1 (stereo unspecified)
inhibition at 1 µM [1]: 51.9%

CCCCc1cc(=O)oc2c3c(c4c(c12)OC(c1ccccc1)C=C4)OC(C)CC3=O (stereo unspecified)
Activity (HOS): 10% | inhibition at 1 µM [1]: 96.4%

CCCCC1C=Cc2c3c(c4oc(=O)cc(CCC(F)(F)F)c4c2O1)C(=O)CC(C)O3 (stereo unspecified)
inhibition at 1 µM [1]: 53.6%

CCCc1cc(=O)oc2c1c1c(c3occc(=O)c32)C=CC(C)(C)O1
inhibition at 1 µM [1]: 64.9%

CCc1cc(=O)oc2c3c(c4c(c12)OC(c1ccccc1)C=C4)OC(C)CC3=O (stereo unspecified)
Activity (HOS): 10% | inhibition at 1 µM [1]: 96.4%

CCCc1cc(=O)oc2c3c(c4c(c12)OC(CCC)C=C4)OC(C)CC3=O (stereo unspecified)
inhibition at 1 µM [1]: 54.1%

CCCCCC1CC(=O)c2c(c3c(c4c(CCC)cc(=O)oc24)OC(C)(C)C=C3)O1 (stereo unspecified)
Activity (HOS): < 10% | inhibition at 1 µM [1]: 46.4%

C/C=C/C1C=Cc2c3c(c4oc(=O)cc(CC)c4c2O1)C(=O)CC(C)O3 (stereo unspecified)
inhibition at 1 µM [1]: 56.4%

CCCC1C=Cc2c3c(c4oc(=O)cc(CC)c4c2O1)C(=O)CC(C)O3 (stereo unspecified)
Activity (HOS): 10% | inhibition at 1 µM [1]: 97%

CCCc1c(F)c(=O)oc2c3c(c4c(c12)OC(C)(C)C=C4)OC(C)CC3=O (stereo unspecified)
Activity (HOS): 10% | inhibition at 1 µM [1]: 45.3%

CCc1c(F)c(=O)oc2c3c(c4c(c12)OC(C)(C)C=C4)OC(C)CC3=O (stereo unspecified)
Activity (HOS): 10%

CCCc1cc(=O)oc2c3c(c4c(c12)OC(C)(C)C=C4)OC(CCC)CC3=O (stereo unspecified)
EC50 [2]: 32.5 nM | selectivity ratio [3]: 102 | Activity (HOS): < 10% | inhibition at 1 µM [1]: 61.9%

C/C=C/C1C=Cc2c3c(c4oc(=O)c(F)c(CC)c4c2O1)C(=O)CC(C)O3 (stereo unspecified)
inhibition at 1 µM [1]: 46.2%

CCCc1cc(=O)oc2c3c(c4c(c12)OC(C)C=C4)OCC(C)C3=O (stereo unspecified)
Activity (HOS): 10% | inhibition at 1 µM [1]: 62.4%

C/C=C/C1C=Cc2c3c(c4oc(=O)c(Cl)c(CCC)c4c2O1)C(=O)CC(C)O3 (stereo unspecified)
inhibition at 1 µM [1]: 57.3%

CCCc1c(Cl)c(=O)oc2c3c(c4c(c12)OCC(C)C4OCC)OC(C)CC3=O (stereo unspecified)
inhibition at 1 µM [1]: 51.7%

CCCCC1C=Cc2c3c(c4oc(=O)cc(CCC)c4c2O1)C(=O)C(C)CO3 (stereo unspecified)
Activity (HOS): < 10% | inhibition at 1 µM [1]: 35.2%

CCCc1cc(=O)oc2c3c(c4c(c12)OC(C)(C)C=C4)OC(c1ccc(C)cc1)CC3=O (stereo unspecified)
inhibition at 1 µM [1]: 57%

CCCc1cc(=O)oc2c3c(c4c(c12)OC(c1ccccc1[N+](=O)[O-])C=C4)OC(C)CC3=O (stereo unspecified)
inhibition at 1 µM [1]: 52.6%

CCc1c(F)c(=O)oc2c3c(c4c(c12)OC(C)C=C4)OC(C)CC3=O (stereo unspecified)
inhibition at 1 µM [1]: 39.5%

CCCc1c(Cl)c(=O)oc2c3c(c4c(c12)OC(c1ccccc1)C=C4)OC(C)CC3=O (stereo unspecified)
Activity (HOS): > 80% | inhibition at 1 µM [1]: 96.3%

CCCc1cc(=O)oc2c3c(c4c(c12)OC(C)(C)C=C4)OCC(C)C3=O (stereo unspecified)
Activity (HOS): 10% | inhibition at 1 µM [1]: 38.9%

CCc1cc(=O)oc2c3c(c4c(c12)OC(C)(C)C=C4)OC(C)CC3=O (stereo unspecified)
EC50 [2]: 270 nM | selectivity ratio [3]: > 1000 | inhibition at 1 µM [1]: 73.2%

CCCc1cc(=O)oc2c3c(c4c(c12)OC(c1ccccc1)C=C4)OCC(C)C3=O (stereo unspecified)
Activity (HOS): < 10%

CCCc1c(Cl)c(=O)oc2c3c(c4c(c12)OCC(C)=C4)OC(C)CC3=O (stereo unspecified)
inhibition at 1 µM [1]: 49.1%

C/C=C/C1C=Cc2c3c(c4oc(=O)cc(CCC)c4c2O1)C(=O)C(C)CO3 (stereo unspecified)
inhibition at 1 µM [1]: 37.8%

CCCCc1cc(=O)oc2c3c(c4c(c12)OC(C)C=C4)OC(C)CC3=O (stereo unspecified)
inhibition at 1 µM [1]: 75.4%

CC1CC(=O)c2c(c3c(c4c5c(c(=O)oc24)CCCC5)OC(C)(C)C=C3)O1 (stereo unspecified)
inhibition at 1 µM [1]: 67%

CCCCC1C=Cc2c3c(c4oc(=O)cc(CC)c4c2O1)C(=O)CC(C)O3 (stereo unspecified)
Activity (HOS): 10% | inhibition at 1 µM [1]: 96.7%

CCCc1c(F)c(=O)oc2c3c(c4c(c12)OCC(C)=C4)OC(C)CC3=O (stereo unspecified)
inhibition at 1 µM [1]: 47.1%

CCc1cc(=O)oc2c3c(c4c(c12)OC(C)C=C4)OC(C)CC3=O (stereo unspecified)
inhibition at 1 µM [1]: 57.4%

CCCc1cc(=O)oc2c3c(c4c(c12)OC(c1ccccc1[N+](=O)[O-])CC4OCC)OC(C)CC3=O (stereo unspecified)
Activity (HOS): < 10% | inhibition at 1 µM [1]: 61%

CC1CC(=O)c2c(c3c(c4c(CN5CCN(C)CC5)cc(=O)oc24)OC(C)(C)C=C3)O1 (stereo unspecified)
inhibition at 1 µM [1]: 48.3%

CC1CC(=O)c2c(c3c(c4c(CCC(F)(F)F)cc(=O)oc24)OC(c2ccccc2)C=C3)O1 (stereo unspecified)
inhibition at 1 µM [1]: 47.6%

COc1cc(-c2cc(=O)oc3c4c(c5c(c23)OC(C)(C)C=C5)OC(C)CC4=O)cc(OC)c1OC (stereo unspecified)
inhibition at 1 µM [1]: 58%

CCCc1cc(=O)oc2c3c(c4c(c12)OC(C)(C)C=C4)OC(c1ccccc1)CC3=O (stereo unspecified)
Activity (HOS): < 10% | inhibition at 1 µM [1]: 62.7%

CCCc1c(Cl)c(=O)oc2c3c(c4c(c12)OC(C)C=C4)OC(C)CC3=O (stereo unspecified)
inhibition at 1 µM [1]: 55.7%

CCCc1c(Cl)c(=O)oc2c3c(c4c(c12)OC(C)(C)C=C4)OC(C)CC3=O (stereo unspecified)
EC50 [2]: 370 nM | selectivity ratio [3]: 243 | inhibition at 1 µM [1]: 68.1%

CCCc1cc(=O)oc2c3c(c4c(c12)OC(C)(C)C=C4)OC(CBr)CC3=O (stereo unspecified)
EC50 [2]: 2.85 nM | selectivity ratio [3]: > 10500 | inhibition at 1 µM [1]: 93.5%

CCCc1cc(=O)oc2c3c(c4c(c12)OC(C)(C)C=C4)OC(C)CC3=O (racemic)
inhibition at 1 µM [1]: 73.1%

CCCc1cc(=O)oc2c3c(c4c(c12)OC(C)(C)C=C4)OC(C)CC3O (racemic)
EC50 [2]: 310 nM

CCCc1cc(=O)oc2c3c(c4c(c12)OC(C)(C)C=C4)O[C@@H]1CCCC[C@@H]1C3=O (relative stereo)
Activity (HOS): < 10% | inhibition at 1 µM [1]: 59.3%

CCCc1cc(=O)oc2c3c(c4c(c12)OC(C)(C)C=C4)O[C@H]1CCCC[C@@H]1C3=O (relative stereo)
Activity (HOS): < 10% | inhibition at 1 µM [1]: 40%

CCCc1cc(=O)oc2c3c(c4c(c12)OC(C)(C)C=C4)OC(C)(C)CC3=O [114, 10,10-DIMETHYL-11-DEMETHYL-12-OXO CALANOLIDE A]
EC50 [2]: 640 nM | selectivity ratio [3]: 47 | inhibition at 1 µM [1]: 68.3%

CCCc1cc(=O)oc2c3c(c4c(c12)OC(C)(C)C=C4)O[C@H](C)[C@@H](C)[C@@H]3O [CALANOLIDE A]
EC50 [2]: 100 nM | MIC [4]: 3.13 µg/mL (≈ 8.45 µM)
